Reference: patent US12474353B2, “Methods and materials for assessing and treating obesity” (Mayo Foundation for Medical Education and Research, priority 2017, dated 2025)

Conditions: human, in vivo
Description: The applicability of obesity-related phenotypes as actionable biomarkers was tested in three pilot, proof of concept studies (see, e.g., Acosta et al., 2015 Gastroenterology 148:537-546; Acosta et al., 2015 Physiol Rep 3; and Halawi et al., 2017 Lancet Gastroenterol Hepatol 2:890-899). First, in a single-center, randomized, parallel-group, double-blind, placebo-controlled, 14-day study, the effects of Phentermine-topiramate-ER (PhenTop) (7.5/46 mg, orally, daily) on gastric emptying (GE) and volume, satiation, satiety, and fasting and postprandial GI hormones was evaluated in 24 obese adults. […] Subsequently, in a prospective, NIH-funded, randomized, placebo controlled clinical trial to study the effects of liraglutide 3 mg, SQ, over 16 weeks on obesity phenotypes and weight in 40 obese patients. […]
A prospective, randomized clinical trial with liraglutide, a long-acting GLP-1 receptor agonist, was completed. […] At baseline and after 16 weeks' treatment, weight, gastric emptying of solids (GES, primary endpoint), large fasting gastric volumes, satiation, and satiety were measured. GES was also measured at 5 weeks. […] Effect of liraglutide on GES T1/2 at 5 and 16 weeks in the liraglutide group was analyzed by paired t-test. Seventeen participants were analyzed in the liraglutide group (n=19 randomized) and 18 in the placebo group (n=21 randomized).

For `CCCCCCCCCCCCCCCC(=O)N[C@@H](CCC(=O)NCCCC[C@H](NC(=O)[C@H](C)NC(=O)[C@H](C)NC(=O)[C@H](CCC(N)=O)NC(=O)CNC(=O)[C@H](CCC(=O)O)NC(=O)[C@H](CC(C)C)NC(=O)[C@H](Cc1ccc(O)cc1)NC(=O)[C@H](CO)NC(=O)[C@H](CO)NC(=O)[C@@H](NC(=O)[C@H](CC(=O)O)NC(=O)[C@H](CO)NC(=O)[C@@H](NC(=O)[C@H](Cc1ccccc1)NC(=O)[C@@H](NC(=O)CNC(=O)[C@H](CCC(=O)O)NC(=O)[C@H](C)NC(=O)[C@@H](N)Cc1cnc[nH]1)[C@@H](C)O)[C@@H](C)O)C(C)C)C(=O)N[C@@H](CCC(=O)O)C(=O)N[C@@H](Cc1ccccc1)C(=O)N[C@H](C(=O)N[C@@H](C)C(=O)N[C@@H](Cc1c[nH]c2ccccc12)C(=O)N[C@@H](CC(C)C)C(=O)N[C@H](C(=O)N[C@@H](CCCNC(=N)N)C(=O)NCC(=O)N[C@@H](CCCNC(=N)N)C(=O)NCC(=O)O)C(C)C)[C@@H](C)CC)C(=O)O` [liraglutide], the “Nausea (most common adverse event)” value was 63.2%.
